For test [1], the target named is T1, Sphingosine 1-phosphate receptor 4 (Homo sapiens, UniProt O95977).
T1 sequence (O95977 whole entry): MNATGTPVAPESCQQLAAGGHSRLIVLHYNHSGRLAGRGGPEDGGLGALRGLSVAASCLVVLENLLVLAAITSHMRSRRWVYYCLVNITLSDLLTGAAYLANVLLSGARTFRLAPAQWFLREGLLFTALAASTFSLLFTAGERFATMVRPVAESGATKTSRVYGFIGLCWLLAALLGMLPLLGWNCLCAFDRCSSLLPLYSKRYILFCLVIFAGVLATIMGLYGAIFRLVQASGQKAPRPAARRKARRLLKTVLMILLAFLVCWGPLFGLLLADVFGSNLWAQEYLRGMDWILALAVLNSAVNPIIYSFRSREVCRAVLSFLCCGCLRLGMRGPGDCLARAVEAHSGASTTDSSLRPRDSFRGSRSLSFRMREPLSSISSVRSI
Briefly: Late stage fluorescence dose response cell-based screening assay for antagonists of the Sphingosine 1-Phosphate Receptor 4 (S1P4). [Related pubchem assays: 1524 (Confirmation screen (S1P4 antagonists).), 1510 (Primary screen (S1P4 antagonists).), 1853 (Summary AID (S1P4 antagonists).), 1692 (Dose response screen (S1P4 antagonists).)]. In kind it is functional.

Test [2] has as its system Streptococcus sp. 'group A'. The test can be described thus: Streptococcus pyogenes SK(-)GAS viability under kanamycin – luminescence, BacTiterGlo, confirmation, counter-screen for streptokinase expression inhibitor project, dose response (AID 1900). In kind it is functional, organism-based. (In general: A counterscreen serves to expose hits that act by an unwanted route or on another target.)

The results in this text go back to ChEMBL document CHEMBL1201862, “PubChem BioAssay data set” (2004).

The structures appear in SMILES notation. Calls of active or inactive are those of the source.

As a reminder, the IC50 is the point on the concentration scale where inhibition reaches its midpoint. A low value points to greater potency in that assay. `COc1cc(NC(=O)Cn2ncc(Cl)c(Cl)c2=O)c(C)cc1[N+](=O)[O-]`: the IC50 in test [1] was 6.74 µM (not active).
A word on the EC50: it is the midpoint of the concentration-response curve. For `Cc1ccc(C)c(S(=O)(=O)N2CCN(Cc3ccc(O)c4ncccc34)CC2)c1`, the EC50 in test [2] was 6.87 µM (active).
